Experimental data as given in US12083143B2, “MLK-regulated microRNAs in angiogenesis and tumor development” (University of Massachusetts, priority 2018, dated 2024).

Legend:
LLC1 cells = test: LLC1 lung tumor formation after tail vein injection (experimental metastasis); assay type: in vivo, mouse; conditions: 1×10^6 LLC1 cells with MLK inhibitor or solvent in 200 ul PBS into tail vein of WT mice; lung isolated after 20 days
Procedure: 1×10^6 LLC1 cells, with either MLK inhibitor (URMC-099) or solvent in 200 ul of sterile PBS were injected into the tail vein of WT mice (12-16 week of age). After 20 days of injection Lung was isolated (A) and tumor number were counted (Control—White bar; MLK inhibitor—Black bar) (B).
We also tested the role of MLK inhibitor in Lung tumor formation. […] After 20 days of injection Lung was isolated and tumor number were counted (Control—White bar; MLK inhibitor—Black bar).

primary MLEC cells = test: qPCR of pro-angiogenic genes in primary MLEC after miR146a mimic transfection, 90 minutes hypoxia; assay type: cell-based, mouse; conditions: mimic transfected 48 hours, 1% O2, versus control
Procedure: Either control or miR146a mimic were transfected into primary MLEC cells for 48 hours. Cells were incubated for 90 minutes in hypoxia chamber in the presence of 1% O2. RNA was isolated and qPCR was performed for genes as noted.
(§1) Total RNA was extracted from cells and tissues with the RNeasy Mini Kit (Qiagen) or TRIzol reagent (Invitrogen), and 1 μg of total RNA was reverse transcribed with oligo(dT) primers for cDNA synthesis. The expression of mRNA was examined by quantitative PCR analysis using a QuantStudio™ 6 Flex Real-Time PCR System (Applied Biosystems). Taqman© assays were used to quantitate Pgf, Adam8, Mmp9, Angptl4, Hprt (Mm00446968—m1) and Gapdh (4352339E-0904021) mRNA (Applied Biosystems). The 2^−ΔΔCT method is used for relative quantification of gene as described elsewhere^5,6. reference genes of Hprt and Gapdh have been used to normalize the PCRs in each sample.

[1] = system: mouse lung endothelial cell (MLEC); test: qRT-PCR of angiogenesis related genes in WT MLEC after miR146a mimic, 4 hours post hypoxia; assay type: cell-based; conditions: mimic 48 hours, versus control
Procedure: (A-D) mRNA was isolated from WT mouse lung endothelial cell (MLEC) treated either with control or miR146a mimic for 48 hours and qRT-PCR was performed for different angiogenesis related genes after 4 hours post hypoxia
Quiescent monolayers of WT and Mlk2/3−/− primary endothelial cell MLECs were exposed to normoxia (21% O2) or hypoxia (1% O2) for 0-24 h in a hypoxia chamber. After exposure cells were immediately harvested and examined for expression of genes by qPCR or immunoblots.
as §1

| Compound | LLC1 tumor formation in vivo (lung tumor number) (LLC1 cells) | expression of pro-angiogenic factors (VEGF, Angptl4, Angpt2, MMP9) by qPCR (primary MLEC cells) | expression of pro-angiogenic factors (VEGF, Angptl4, Angpt2, MMP9) by qPCR (primary MLEC cells; listed as miR146a) | angiogenesis related gene expression by qRT-PCR [1] |
| --- | --- | --- | --- | --- |
| CN1CCN(Cc2ccc(-c3cnc4[nH]cc(-c5ccc6[nH]ccc6c5)c4c3)cc2)CC1 [URMC-099] | suppressed LLC1 tumor formation in vivo |  |  |  |
| ugagaacugaauuccauggguu (SEQ ID NO:3) [miR146a mimic] |  | down-regulated | suppressed the pro-angiogenic factors | mimic the MLK deficient phenotype |
